Source: patent publication US6737425B1, “N,N-substituted cyclic amine derivatives” (Eisai Co., Ltd., priority 1998, dated 2004)
Structures can show the parent of a compound that is named as a salt.

System: voltage-dependent calcium channels (cerebral cortex synaptosome)
Experiment: Measurement of voltage-dependent calcium channel activity by the use of a fluorescent pigment (fura 2)
Assay type: cell-based
Conditions: rat cerebral cortex synaptosome, fura 2, KCl stimulation, compound incubated 10 minutes
Description: Measurement of Voltage-dependent Calcium Channel Activity by the use of a Fluorescent Pigment (fura 2)
Cerebral cortexes were removed from cut rat brains and disrupted roughly with scissors. These were introduced into a homogenizer, homogenized in 0.3 M saccharose and centrifuged at 4° C. (1,500 g×10 min). The resulting supernatant was further centrifuged at 4° C. (10,000 g×20 min). The resulting precipitates were suspended in 0.3 M saccharose. The suspension was layered on 0.8 M saccharose and centrifuged (10,000 g×30 min.).
4 μM fura 2/AM (Dojin Ltd.) was suspended in solution A to prepare a loading solution. To the synaptosome solution prepared in the method described above was added an equal volume of the loading solution, and the mixture was incubated for 40 minutes at room temperature.
As comparative and control compound, verapamil hydrochloride was used.

Row | IC50 (Hydrochloride) [µM] | IC50 [µM] | Structure (SMILES)
1 | 15 |  | CC(C)C(C#N)(CCN1CCN(CCOc2ccc(F)cc2)CC1)c1ccccc1 (single isomer, unassigned; (+)) [Example 78, (+)-1-[(3-Cyano-4-methyl-3-phenyl)pentyl]-4-[2-(4-fluorophenoxyl)ethyl]piperazine Hydrochloride]
2 | 3.8 |  | N#CC(CCCN1CCN(CCOc2ccc(F)cc2)CC1)(c1ccccc1)C1CCCCC1 (single isomer, unassigned; (+)) [Example 80, (+)-1-[(4-Cyano-4-cyclohexyl-4-phenyl)butyl]-4-[2-(4-fluorophenoxyl)ethyl]piperazine Hydrochloride]
3 | 7.5 |  | CC(C)C(C#N)(CCN1CCN(CCOc2ccc(F)cc2)CC1)c1ccccc1 (single isomer, unassigned; (-)) [Example 77, (−)-1-[(3-Cyano-4-methyl-3-phenyl)pentyl]-4-[2-(4-fluorophenoxyl)ethyl]piperazine Hydrochloride]
4 |  | 4 | CC(C)C(C#N)(CCCN1CCN(CCCOc2ccc(F)cc2)CC1)c1ccccc1 (stereo not drawn) [Example 2, 1-[(4-Cyano-5-methyl-4-phenyl)hexyl]-4-[3-(4-fluorophenoxy)propyl]piperazine]
5 |  | 4.8 | CC(C)C(C#N)(CCCN1CCCN(CCOc2ccc(F)cc2)CC1)c1ccccc1 (stereo not drawn) [Example 3]
6 |  | 5.7 | CC(C)C(C#N)(CCN1CCCN(CCOc2ccc(F)cc2)CC1)c1ccccc1 (stereo not drawn) [Example 4, 1-[(3-Cyano-4-methyl-3-phenyl)pentyl]-4-[2-(4-fluorophenoxy)ethyl]homopiperazine]
7 |  | 2.7 | CC(C)C(C#N)(CCCN1CCN(CCCCOc2ccccc2)CC1)c1ccccc1 (stereo not drawn) [Example 6, 1-[(4-Cyano-5-methyl-4-phenyl)hexyl]-4-(4-phenoxybutyl)piperazine]
8 |  | 4.2 | CC(C)C(C#N)(CCCN1CCN(CCOc2ccc([N+](=O)[O-])cc2)CC1)c1ccccc1 (stereo not drawn) [Example 8, 1-[(4-Cyano-5-methyl-4-phenyl)hexyl]-4-[2-(4-nitrophenoxy)ethyl]piperazine]
9 |  | 9.8 | CC(C)C(C#N)(CCCN1CCN(CCOc2ccc(F)cc2)CC1)c1ccc(C#N)cc1 (stereo not drawn) [Example 15, 1-[4-Cyano-5-methyl-4-(4-cyanonphenyl)hexyl]-4-[2-(4-fluorophenoxy)ethyl]piperazine]
10 |  | 4.8 | CC(C)C(C#N)(CCCN1CCN(CCOc2ccc(F)cc2)CC1)c1ccc([N+](=O)[O-])cc1 (stereo not drawn) [Example 16, 1-[4-Cyano-5-methyl-4-(4-nitrophenyl)hexyl]-4-[2-(4-fluorophenoxy)ethyl]piperazine]
11 |  | > 16 | CC(C)C(C#N)(CCCN1CCN(CCOc2ccc(F)cc2)CC1)c1ccc(N)cc1 (stereo not drawn) [Example 17, 1-[4-Cyano-5-methyl-4-(4-aminophenyl)hexyl]-4-[2-(4-fluorophenoxy)ethyl]piperazine]
12 |  | 7.2 | CCC(C#N)(CCCN1CCN(CCOc2ccc(F)cc2)CC1)c1ccccc1 (stereo not drawn) [Example 28, 1-[(4-Cyano-4-phenyl)hexyl]-4-[2-(4-fluorophenoxy)ethyl]piperazine]
13 |  | 4 | CCCCC(C#N)(CCCN1CCN(CCOc2ccc(F)cc2)CC1)c1ccccc1 (stereo not drawn) [Example 29, 1-[(4-Cyano-4-phenyl)octyl]-4-[2-(4-fluorophenoxy)ethyl]piperazine]
14 |  | 9.3 | CC(C)C(C#N)(CCCN1CCN(CCOc2ccccc2F)CC1)c1ccccc1 (stereo not drawn) [Example 31]
15 |  | 6.2 | CC(C)C(C#N)(CCCN1CCN(CCOc2cccc(F)c2)CC1)c1ccccc1 (stereo not drawn) [Example 32, 1-[(4-Cyano-5-methyl-4-phenyl)hexyl]-4-[2-(3-fluorophenoxy)ethyl]piperazine]
16 |  | 3.4 | CC(C)C(C#N)(CCCN1CCN(CCCCCOc2ccc(F)cc2)CC1)c1ccccc1 (stereo not drawn) [Example 33]
17 |  | 4 | N#CC(CCCN1CCN(CCOc2ccc(F)cc2)CC1)(c1ccccc1)C1CCCCC1 (stereo not drawn) [Example 38]
18 |  | 10 | COc1cccc(OCCN2CCN(CCCC(C#N)(c3ccccc3)C(C)C)CC2)c1OC (stereo not drawn) [Example 40, 1-[(4-Cyano-5-methyl-4-phenyl)hexyl]-4-[2-(2,3-dimethoxyphenoxy)ethyl]piperazine]
19 |  | 16 | CC(C)C(C#N)(CCCN1CCN(CCOc2ccccc2C#N)CC1)c1ccccc1 (stereo not drawn) [Example 46, 1-[(4-Cyano-5-methyl-4-phenyl)hexyl]-4-[2-(2-cyanophenoxy)ethyl]piperazine]
20 |  | 4.8 | CC(C)C(C#N)(CCCN1CCN(CCSc2ccc(F)cc2)CC1)c1ccccc1 (stereo not drawn) [Example 49, 1-[(4-Cyano-5-methyl-4-phenyl)hexyl]-4-[2-(4-fluorophenylthio)ethyl]piperazine]
21 |  | 7.5 | CC(C)C(C#N)(CCCN1CCN(CCNc2ccc(F)cc2)CC1)c1ccccc1 (stereo not drawn) [Example 51, 1-[(4-Cyano-5-methyl-4-phenyl)hexyl]-4-[2-(4-fluorophenylamino)ethyl]piperazine]
22 |  | 16 | CC(=O)N(CCN1CCN(CCCC(C#N)(c2ccccc2)C(C)C)CC1)Cc1ccccc1 (stereo not drawn) [Example 56, 1-[(4-Cyano-5-methyl-4-phenyl)hexyl]-4-[2-(N-acetyl-N-benzylamino)ethyl]piperazine]
23 |  | 8.8 | CC(C)C(C#N)(CCCN1CCN(CC(O)COc2ccc(F)cc2)CC1)c1ccccc1 (stereo not drawn) [Example 62, 1-[(4-Cyano-5-methyl-4-phenyl)hexyl]-4-[2-hydroxy-3-(4-fluorophenoxy)propyl]piperazine]

The next lines start with the compound.

Row | Structure (SMILES) | IC50 (Hydrochloride) [µM] | IC50 [µM]
24 | COc1ccc(CCN(C)CCCC(C#N)(c2ccc(OC)c(OC)c2)C(C)C)cc1OC (stereo not drawn) [Control, verapamil hydrochloride, reference compound] |  | > 16
25 | CC(C)C(C#N)(CCN1CCN(CCCOc2ccc(F)cc2)CC1)c1ccccc1 (stereo not drawn) [Example 5, 1-[(3-Cyano-4-methyl-3-phenyl)pentyl]-4-[3-(4-fluorophenoxy)propyl]piperazine] |  | 7.7
26 | COC(=O)c1ccc(C(C#N)(CCCN2CCN(CCOc3ccc(F)cc3)CC2)C(C)C)cc1 (stereo not drawn) [Example 12, 1-[4-Cyano-5-methyl-4-(4-carbomethoxyphenyl)hexyl]-4-[2-(4-fluorophenoxy)ethyl]piperazine] |  | 8.1
27 | CC(C)C(C#N)(CCCN1CCN(CCOc2ccc(F)cc2)CC1)c1ccc(C=NO)cc1 (stereo not drawn) [Example 14, 1-[4-Cyano-5-methyl-4-(4-hydroxyiminomethylphenyl)hexyl]-4-[2-(4-fluorophenoxy)ethyl]piperazine] |  | 8.7
28 | CC(C)C(C#N)(CCCN1CCN(CCOc2ccc(F)cc2)CC1)c1ccc(N(C)C)cc1 (stereo not drawn) [Example 19, 1-[4-Cyano-5-methyl-4-(4-dimethylaminophenyl)hexyl]-4-[2-(4-fluorophenoxy)ethyl]piperazine] |  | 6
29 | CC(C)C(C#N)(CCN1CCN(CCOc2ccc(F)cc2)CC1)c1ccccc1 (stereo not drawn) [Example 25, 1-[(3-Cyano-4-methyl-3-phenyl)pentyl]-4-[2-(4-fluourophenoxy)ethyl]piperazine] |  | 9.7
30 | CCCC(C#N)(CCCN1CCN(CCOc2ccc(F)cc2)CC1)c1ccccc1 (stereo not drawn) [Example 27, 1-[(4-Cyano-4-phenyl)heptyl]-4-[2-(4-fluorophenoxy)ethyl]piperazine] |  | 4.6
31 | CC(C)CC(C#N)(CCCN1CCN(CCOc2ccc(F)cc2)CC1)c1ccccc1 (stereo not drawn) [Example 30, 1-[(4-Cyano-6-methyl-4-phenyl)hepthyl]-4-[2-(4-fluorophenoxy)ethyl]piperazine] |  | 2.9
32 | CC(C)C(C#N)(CCCCN1CCN(CCOc2ccc(F)cc2)CC1)c1ccccc1 (stereo not drawn) [Example 34] |  | 3.8
33 | CC(C)C(C#N)(CCCN1CCN(CCOc2ccc(F)c(F)c2)CC1)c1ccccc1 (stereo not drawn) [Example 35, 1-[(4-Cyano-5-methyl-4-phenyl)hexyl]-4-[2-(3,4-difluorophenoxy)ethyl]piperazine] |  | 5.2
34 | CC(C)C(C#N)(CCCN1CCN(CCOc2ccc(F)cc2)CC1)c1ccc(Cl)c(Cl)c1 (stereo not drawn) [Example 37, 1-{[4-Cyano-5-methyl-4-(3,4-dichlorophenyl)hexyl]}-4-[2-(4-fluorophenoxy)ethyl]piperazine] |  | 2.7
35 | COc1ccc(OCCN2CCN(CCCC(C#N)(c3ccccc3)C(C)C)CC2)cc1 (stereo not drawn) [Example 39, 1-[(4-Cyano-5-methyl-4-phenyl)hexyl]-4-[2-(4-methoxyphenoxy)ethyl]piperazine] |  | 9.6
36 | CC(C)C(C#N)(CCCN1CCN(CCOc2ccc(N(C)C)cc2)CC1)c1ccccc1 (stereo not drawn) [Example 43, 1-[(4-Cyano-5-methyl-4-phenyl)hexyl]-4-[2-(4-dimethylaminophenoxy)ethyl]piperazine] |  | 13
37 | CSc1ccc(OCCN2CCN(CCCC(C#N)(c3ccccc3)C(C)C)CC2)cc1 (stereo not drawn) [Example 45, 1-[(4-Cyano-5-methyl-4-phenyl)hexyl]-4-[2-(4-methylthiophenoxy)ethyl]piperazine] |  | 4.6
38 | CC(C)C(C#N)(CCCN1CCN(CCOc2ccc(C#N)cc2)CC1)c1ccccc1 (stereo not drawn) [Example 47, 1-[(4-Cyano-5-methyl-4-phenyl)hexyl]-4-[2-(4-cyanophenoxy)ethyl]piperazine] |  | 13
39 | CC(C)C(C#N)(CCCN1CCN(CCOCc2ccccc2)CC1)c1ccccc1 (stereo not drawn) [Example 48, 1-[(4-Cyano-5-methyl-4-phenyl)hexyl]-4-[2-(benzyloxy)ethyl]piperazine] |  | 8.4
40 | CC(C)C(C#N)(CCCN1CCN(CCC(=O)c2ccc(F)cc2)CC1)c1ccccc1 (stereo not drawn) [Example 59, 1-[(4-Cyano-5-methyl-4-phenyl)hexyl]-4-[2-(4-fluorobenzoyl)ethyl]piperazine] |  | 12
41 | CC(C)C(C#N)(CCCN1CCN(CCC(O)c2ccc(F)cc2)CC1)c1ccccc1 (stereo not drawn) [Example 60, 1-[(4-Cyano-5-methyl-4-phenyl)hexyl]-4-[-hydroxy-3-(4-flurophenyl)propyl]piperazine] |  | 10
42 | CC(C)C(C#N)(CCCN1CCN(C(=O)COc2ccc(F)cc2)CC1)c1ccccc1 (stereo not drawn) [Example 61, 1-[(4-Cyano-5-methyl-4-phenyl)hexyl]-4-[2-(4-fluorophenoxy)acetyl]piperazine] |  | 11
